Measured values as given in PubChem BioAssay AID2060600 (Molecular Pharmacology Branch, DTP, NCI, 2025).

Test system: 996289-038-R-J1-PDC complex spheroid viability
Assay: Anticancer human tumor 996289-038-R-J1-PDC patient-derived colon adenocarcinoma cell line growth inhibition [CLK]
Conditions: for IC50: curve of first compound; for viability, T/C: stronger effect = lower value; active = viability on the fitted dose curve at most 10% of control; inactive = the rest
In short: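 Multi-cell-type spheroids combined patient-derived tumor cells with HUVEC endothelial cells and human mesenchymal stem cells. Paired agents were dosed in half-log steps down from about clinical Cmax, or from 10 microM where Cmax was unknown.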

[1] = second compound 0.0316 µM, first compound 0.0316 µM
[2] = second compound 0.0316 µM, first compound 0.1 µM
[3] = second compound 0.0316 µM, first compound 0.316 µM
[4] = second compound 0.0316 µM, first compound 1 µM
[5] = second compound 0.0316 µM, first compound 3.16 µM
[6] = second compound 0.0316 µM, first compound 10 µM
[7] = second compound 0.1 µM, first compound 0.0316 µM
[8] = second compound 0.1 µM, first compound 0.1 µM
[9] = second compound 0.1 µM, first compound 0.316 µM
[10] = second compound 0.1 µM, first compound 1 µM
[11] = second compound 0.1 µM, first compound 3.16 µM
[12] = second compound 0.1 µM, first compound 10 µM
[13] = second compound 0.316 µM, first compound 0.0316 µM
[14] = second compound 0.316 µM, first compound 0.1 µM
[15] = second compound 0.316 µM, first compound 0.316 µM
[16] = second compound 0.316 µM, first compound 1 µM
[17] = second compound 0.316 µM, first compound 3.16 µM
[18] = second compound 0.316 µM, first compound 10 µM
[19] = second compound 1 µM, first compound 0.0316 µM
[20] = second compound 1 µM, first compound 0.1 µM
[21] = second compound 1 µM, first compound 0.316 µM
[22] = second compound 1 µM, first compound 1 µM
[23] = second compound 1 µM, first compound 3.16 µM
[24] = second compound 1 µM, first compound 10 µM
[25] = second compound 3.16 µM, first compound 0.0316 µM
[26] = second compound 3.16 µM, first compound 0.1 µM
[27] = second compound 3.16 µM, first compound 0.316 µM
[28] = second compound 3.16 µM, first compound 1 µM
[29] = second compound 3.16 µM, first compound 3.16 µM
[30] = second compound 3.16 µM, first compound 10 µM
[31] = second compound 10 µM, first compound 0.0316 µM
[32] = second compound 10 µM, first compound 0.1 µM
[33] = second compound 10 µM, first compound 0.316 µM
[34] = second compound 10 µM, first compound 1 µM
[35] = second compound 10 µM, first compound 3.16 µM
[36] = second compound 10 µM, first compound 10 µM
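Note: spheroids exposed to the agents for 7 days before readout.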

CC(C)CC(NC(=O)C(Cc1ccccc1)NC(=O)c1cnccn1)B(O)O (stereo unspecified) + CNC(=O)c1ccc(Nc2nc(OC3CCCC3)c3c(-c4ccc5nc(C)oc5c4)c[nH]c3n2)c(OC)c1
inactive: viability, T/C (second compound 0.0316 µM, first compound 0.000949 µM) 121% | viability, T/C (second compound 0.0316 µM, first compound 0.003 µM) 76.2% | viability, T/C (second compound 0.1 µM, first compound 0.000949 µM) 139% | viability, T/C (second compound 0.1 µM, first compound 0.003 µM) 70% | viability, T/C (second compound 0.316 µM, first compound 0.000949 µM) 76.2% | viability, T/C (second compound 0.316 µM, first compound 0.003 µM) 30.4% | viability, T/C (second compound 1 µM, first compound 0.000949 µM) 66.4% | viability, T/C (second compound 3.16 µM, first compound 0.000949 µM) 58.1% | viability, T/C (second compound 10 µM, first compound 0.000949 µM) 56.3%
0.00132 µM: IC50 (second compound 1 µM)
0.00184 µM: IC50 (second compound 0.316 µM)
0.00457 µM: IC50 (second compound 0.0316 µM)
0.00421 µM: IC50 (second compound 0.1 µM)
active: viability, T/C (second compound 0.0316 µM, first compound 0.00949 µM) 4.49% | viability, T/C (second compound 0.0316 µM, first compound 0.03 µM) 0.95% | viability, T/C (second compound 0.0316 µM, first compound 0.0949 µM) 3.14% | viability, T/C (second compound 0.0316 µM, first compound 0.3 µM) 0.51% | viability, T/C (second compound 0.1 µM, first compound 0.00949 µM) 1.94% | viability, T/C (second compound 0.1 µM, first compound 0.03 µM) 0.61% | viability, T/C (second compound 0.1 µM, first compound 0.0949 µM) 0.54% | viability, T/C (second compound 0.1 µM, first compound 0.3 µM) 0.26% | viability, T/C (second compound 0.316 µM, first compound 0.00949 µM) 0.98% | viability, T/C (second compound 0.316 µM, first compound 0.03 µM) 1.34% | viability, T/C (second compound 0.316 µM, first compound 0.0949 µM) 0.59% | viability, T/C (second compound 0.316 µM, first compound 0.3 µM) 1.22% | viability, T/C (second compound 1 µM, first compound 0.003 µM) 9.51% | viability, T/C (second compound 1 µM, first compound 0.00949 µM) 0.47% | viability, T/C (second compound 1 µM, first compound 0.03 µM) 0.42% | viability, T/C (second compound 1 µM, first compound 0.0949 µM) 3.6% | viability, T/C (second compound 1 µM, first compound 0.3 µM) 1.03% | viability, T/C (second compound 3.16 µM, first compound 0.003 µM) 6.51% | viability, T/C (second compound 3.16 µM, first compound 0.00949 µM) 1.11% | viability, T/C (second compound 3.16 µM, first compound 0.03 µM) 0.54% | viability, T/C (second compound 3.16 µM, first compound 0.0949 µM) 0.85% | viability, T/C (second compound 3.16 µM, first compound 0.3 µM) 1.44% | viability, T/C (second compound 10 µM, first compound 0.003 µM) 6.54% | viability, T/C (second compound 10 µM, first compound 0.00949 µM) 1.51% | viability, T/C (second compound 10 µM, first compound 0.03 µM) 0.65% | viability, T/C (second compound 10 µM, first compound 0.0949 µM) 0.7% | viability, T/C (second compound 10 µM, first compound 0.3 µM) 2.05%
0.00114 µM: IC50 (second compound 3.16 µM)
0.0011 µM: IC50 (second compound 10 µM)

CC1COCCN1c1cc(C2(S(C)(=N)=O)CC2)nc(-c2ccnc3[nH]ccc23)n1 (stereo unspecified) + CNC(=O)c1ccc(Nc2nc(OC3CCCC3)c3c(-c4ccc5nc(C)oc5c4)c[nH]c3n2)c(OC)c1
2.84 µM: IC50 (second compound 3.16 µM)
2.13 µM: IC50 (second compound 10 µM)
inactive: viability, T/C [1] 116% | viability, T/C [2] 126% | viability, T/C [3] 118% | viability, T/C [4] 117% | viability, T/C [5] 122% | viability, T/C [6] 100% | viability, T/C [7] 129% | viability, T/C [8] 135% | viability, T/C [9] 129% | viability, T/C [10] 122% | viability, T/C [11] 121% | viability, T/C [12] 88.1% | viability, T/C [13] 84.8% | viability, T/C [14] 83% | viability, T/C [15] 79.4% | viability, T/C [16] 73.2% | viability, T/C [17] 73.8% | viability, T/C [18] 58.5% | viability, T/C [19] 70.3% | viability, T/C [20] 71.5% | viability, T/C [21] 68.8% | viability, T/C [22] 57.5% | viability, T/C [23] 54.2% | viability, T/C [24] 36.9% | viability, T/C [25] 68.5% | viability, T/C [26] 60.9% | viability, T/C [27] 55.8% | viability, T/C [28] 64% | viability, T/C [29] 46% | viability, T/C [30] 39.8% | viability, T/C [31] 59.3% | viability, T/C [32] 55.7% | viability, T/C [33] 57% | viability, T/C [34] 53.7% | viability, T/C [35] 48.1% | viability, T/C [36] 31%
3.67 µM: IC50 (second compound 1 µM)
> 10 µM: IC50 (second compound 0.0316 µM) | IC50 (second compound 0.1 µM) | IC50 (second compound 0.316 µM)

O=C(c1cc(Cc2n[nH]c(=O)c3ccccc23)ccc1F)N1CCN(C(=O)C2CC2)CC1 + CNC(=O)c1ccc(Nc2nc(OC3CCCC3)c3c(-c4ccc5nc(C)oc5c4)c[nH]c3n2)c(OC)c1
inactive: viability, T/C [1] 126% | viability, T/C [2] 113% | viability, T/C [3] 113% | viability, T/C [4] 124% | viability, T/C [5] 120% | viability, T/C [6] 103% | viability, T/C [7] 122% | viability, T/C [8] 121% | viability, T/C [9] 116% | viability, T/C [10] 117% | viability, T/C [11] 114% | viability, T/C [12] 115% | viability, T/C [13] 78.9% | viability, T/C [14] 74.4% | viability, T/C [15] 76.3% | viability, T/C [16] 75.4% | viability, T/C [17] 85.3% | viability, T/C [18] 71.3% | viability, T/C [19] 70.8% | viability, T/C [20] 65.8% | viability, T/C [21] 64% | viability, T/C [22] 60.6% | viability, T/C [23] 69.3% | viability, T/C [24] 61.3% | viability, T/C [25] 62.6% | viability, T/C [26] 57.5% | viability, T/C [27] 58.1% | viability, T/C [28] 60.2% | viability, T/C [29] 64% | viability, T/C [30] 58.5% | viability, T/C [31] 62.6% | viability, T/C [32] 59.4% | viability, T/C [33] 61% | viability, T/C [34] 58.3% | viability, T/C [35] 61.1% | viability, T/C [36] 52.1%
> 10 µM: IC50 (second compound 0.0316 µM) | IC50 (second compound 0.1 µM) | IC50 (second compound 0.316 µM) | IC50 (second compound 1 µM) | IC50 (second compound 3.16 µM) | IC50 (second compound 10 µM)
